Laboratory results as given in patent US7749955B2, “Separation of polypeptides comprising a racemized amino acid” (Novo Nordisk A/S, priority 2003, dated 2010).

Experiment: isoelectric pH of the peptide (isoelectric precipitation)
Format: physicochemical
Conditions: pH at which the peptide was precipitated after chromatography
Excerpt: Arg^34GLP-1(7-37) was expressed in yeast (S. cerevisiae) by conventional recombinant technology as described elsewhere (WO 98/08871). Arg^34GLP-1(7-37) in the fermentation broth was then purified by conventional reversed phase chromatography and subsequently precipitated at the isoelectric pH of the peptide, i.e. at pH 5.4. The precipitate was isolated by centrifugation. Following another RP-LC purification step and isoelectric precipitation, the Arg^34GLP-1(7-37) peptide was acylated as decribed in WO 00/55119 to give the GLP-1 derivative Arg^34Lys^26N^ε(γ-Glu(N^α-hexadecanoyl))GLP-1(7-37).
L17K, K30R-GLP2(1-33) was expressed in yeast (S. cerevisiae) by conventional recombinant technology in a similar manner as described in WO 98/08871 for GLP-1 peptides. L17K, K30R-GLP2(1-33) in the fermentation broth was then purified by conventional aniaon exchange and reversed phase chromatography and subsequently precipitated at the isoelectric pH of the peptide, i.e. at pH 4. The precipitate was isolated by centrifugation. D-His-L17K, K30R-GLP2(1-33) was prepared by solid phase synthesis.

Substance	isoelectric pH of the peptide [pH]
Arg^34GLP-1(7-37)	5.4
L17K, K30R-GLP2(1-33) (HADGSFSDEMNTILDNKAARDFINWLIQTRITD; Glucagon-like peptide 2; UniProt P01275 146-178, looked up, variant L17K K30R) [GLP-2 analogue expressed in yeast]	4
